These results are taken from ChEMBL document CHEMBL1201862, “PubChem BioAssay data set” (2004).

SMILES strings stand for the structures.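 Dose response: 5 concentrations. Exposure: 48 h. Format: 96-well plates. Endpoint: linear interpolation; highest concentration if not reached. GI50 = concentration required for 50% inhibition of growth.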 The source made the active and inactive calls. Rule as the data show it: active = GI50 up to about 1.1 µM and inactive = higher.

What all share (assay): NCI-60 cell line screen, 48 h
The subject of test [1] is SK-MEL-2.
Test [2] has as its system OVCAR-3.
Test [3] has as its system 786-0.
For test [4], the system named is PC-3.
Test [5] deals with LOX IMVI.
The test system of test [6] is TK-10.
Test [7] concerns UACC-62.
The subject of test [8] is SNB-75.
Test [9] concerns HCT-15.
Test [10] has as its system UO-31.
Test [11] deals with EKVX.
Test [12] has as its system CAKI-1.
The test system of test [13] is SK-MEL-28.
The subject of test [14] is SK-OV-3.
The subject of test [15] is SF-295.
Test [16] has as its system SNB-19.
In test [17] the test system is OVCAR-4.
The subject of test [18] is HL-60.
The test system of test [19] is OVCAR-8.
For test [20], the system named is HCC 2998.

For `CO[C@@H]1[C@H](O)CC[C@]2(CO2)[C@H]1[C@@]1(C)O[C@@H]1CC=C(C)C`, the GI50 was > 200 µM (inactive) in test [1]; 189 µM (inactive) in test [2]; > 200 µM (inactive) in test [3]; > 200 µM (inactive) in test [4]; 32.7 µM (inactive) in test [5]; > 200 µM (inactive) in test [6]. The GI50 in test [7] was 54.3 µM (inactive); in [8] it was > 200 µM (inactive); in [9], 46.1 µM; in [10], 83.2 µM (inactive); in test [11] it was 165 µM (inactive); in test [12], > 200 µM (inactive). In addition, the GI50 was > 200 µM (inactive) in [13]; > 200 µM (inactive) in test [14]; 11 µM (inactive) in test [15]; 79.1 µM (inactive) in test [16]; > 200 µM (inactive) in [17].

Consider `Cc1[nH]c2ccccc2c1-c1cc(-c2cc(-c3c(C)[nH]c4ccccc34)nc(N)n2)nc(N)n1`, for which the GI50 in test [18], in test [1], in test [2], in test [3], in [4] and in test [5] was > 100 µM (inactive) each time. Besides, the GI50 was > 100 µM (inactive) in test [6]; > 100 µM (inactive) in test [7]; above 100 µM in [9]; 14.9 µM (inactive) in test [10]; > 100 µM (inactive) in [11]; > 100 µM (inactive) in [19]. Also, the GI50 in test [12], in [13], in [14], in test [15], in [16] and in test [17] was > 100 µM (inactive) throughout.

For the compound `O=C1C(NS(=O)(=O)c2ccccc2)=C(N(Cc2ccccc2)Cc2ccccc2)C(=O)c2ccccc21`, the GI50 in test [18] was 20.7 µM (inactive); in test [1], 20.8 µM (inactive); in test [2] it was 30.4 µM (inactive); in [3], 49.3 µM (inactive); in test [4], 32.4 µM (inactive); in [5] it was 65.3 µM (inactive). Moreover, the GI50 in [6] is 66.8 µM (inactive); in test [7], 33.4 µM (inactive); in [8] it was 70.8 µM (inactive); in test [9], 37.7 µM; in test [10] it was 19.2 µM (inactive); in test [11], 53.7 µM (inactive). Further, the GI50 was 70.3 µM (inactive) in [19]; > 100 µM (inactive) in test [12]; 40.9 µM (inactive) in [13]; 39.9 µM (inactive) in [14]; 31.9 µM (inactive) in [15]; 38.6 µM (inactive) in [16]. The GI50 in test [17] was 19.5 µM (inactive).

On to `Cc1c(C)c(C)c(-n2[nH]c(=O)n(C)c2=O)c(C)c1C`, for which the GI50 in test [18], in test [1], in [2], in test [3], in [4] and in test [5] was > 100 µM (inactive) throughout. The GI50 in test [6] was > 100 µM (inactive); in test [7], > 100 µM (inactive); in test [8], > 100 µM (inactive); in test [9], above 100 µM; in [10] it was 52.5 µM (inactive); in [11], > 100 µM (inactive). Moreover, the GI50 in test [19], in test [12], in test [13], in test [14], in test [15] and in test [16] was > 100 µM (inactive) throughout.

As to `Nc1ccc2c(O)cc(O)nc2n1`, the GI50 in test [18], in [1], in test [3], in [4], in test [6] and in [7] was > 100 µM (inactive) in each case. In addition, the GI50 was > 100 µM (inactive) in test [8]; above 100 µM in [9]; > 100 µM (inactive) in test [10]; > 100 µM (inactive) in [11]; > 100 µM (inactive) in [19]; > 100 µM (inactive) in test [12]. Further, the GI50 in [13], in [14], in [15], in [16] and in [17] was > 100 µM (inactive) in each case.

In the case of `Cc1cc2sc(C)[n+](CCCOS(=O)(=O)[O-])c2cc1C`, the GI50 in [18], in test [1], in [2], in test [3], in test [4] and in test [5] was > 100 µM (inactive) in each case. The GI50 in test [6] is > 100 µM (inactive); in test [7], > 100 µM (inactive); in test [8] it was > 100 µM (inactive); in test [9], above 100 µM; in [10], > 100 µM (inactive); in [11], > 100 µM (inactive). The GI50 in test [19], in test [12], in [13], in test [14], in test [15] and in test [16] was > 100 µM (inactive) in each case. The GI50 in test [17] is > 100 µM (inactive).

As to `CC(C)C1(Cl)CCC2C3(C)CCCC(C)(C(=O)O)C3CC(Cl)C2(Cl)C1Cl` (stereo unspecified), the GI50 is 22.3 µM (inactive) in test [18]; 31.4 µM (inactive) in test [1]; 32.6 µM (inactive) in test [3]; 34.6 µM (inactive) in test [4]; 33.8 µM (inactive) in test [5]; 43.3 µM (inactive) in test [6]. The GI50 is 24.7 µM (inactive) in [7]; 36.6 µM in [9]; 32.1 µM (inactive) in test [10]; 27.4 µM (inactive) in test [20]; 21.5 µM (inactive) in [11]; 38.7 µM (inactive) in test [19]. For the same compound, the GI50 in [12] is 43 µM (inactive); in test [13], 16.7 µM (inactive); in test [16] it was 34.8 µM (inactive); in [17], 24.8 µM (inactive).

Take `CC1S/C(=N/c2nnc(-c3ccccc3)o2)NC1=O` (stereo unspecified): the GI50 was 36.7 µM (inactive) in test [18]; 69.5 µM (inactive) in test [1]; 18.5 µM (inactive) in test [2]; 28.3 µM (inactive) in test [3]; 38.5 µM (inactive) in [4]; 35.5 µM (inactive) in test [5]. For the same compound, the GI50 in test [6] was 58.7 µM (inactive); in test [7] it was 52.6 µM (inactive); in test [9], 30.4 µM; in test [10], 30.2 µM (inactive); in test [11], 27 µM (inactive); in test [19], 43.6 µM (inactive). Further, the GI50 was > 100 µM (inactive) in [12]; 74.6 µM (inactive) in test [13]; 18.3 µM (inactive) in test [15]; 55.6 µM (inactive) in test [16]; 31.2 µM (inactive) in test [17].

In the case of `COc1ccc(CN=C(N)N)c2ccccc12`, the GI50 in [18] was 23.8 µM (inactive); in [1], 35.1 µM (inactive); in [2] it was 42.9 µM (inactive); in test [3], 12.7 µM (inactive); in test [4], 17.7 µM (inactive); in test [5], 24.8 µM (inactive). Besides, the GI50 is 22.2 µM (inactive) in test [6]; 39.4 µM (inactive) in test [7]; 20.5 µM (inactive) in test [8]; above 100 µM in test [9]; 23.5 µM (inactive) in test [10]; 21.1 µM (inactive) in test [11]. The GI50 in test [19] is 38.8 µM (inactive); in test [12] it was 20.7 µM (inactive); in test [13], 22.3 µM (inactive); in test [14], 34.8 µM (inactive); in test [15], 2.7 µM (inactive); in test [16], 18.4 µM (inactive).

Regarding `COc1ccc(C2SC(=N)Nc3c2c(C)nn3C(=O)c2ccccc2O)cc1OC` (stereo unspecified), the GI50 in test [18] is 2.16 µM (inactive); in test [1], 4.26 µM (inactive); in [2], > 10 µM (inactive); in [3] it was 7.1 µM (inactive); in test [4] it was 4.5 µM (inactive); in test [5] it was 4.58 µM (inactive). In addition, the GI50 in [6] is > 10 µM (inactive); in test [7] it was 2.64 µM (inactive); in test [8], 3.09 µM (inactive); in test [9] it was 4.78 µM; in [10] it was 4.61 µM (inactive); in test [11] it was > 10 µM (inactive). Moreover, the GI50 in [12] was 6.59 µM (inactive); in test [13], 9.51 µM (inactive); in test [14], 2.54 µM (inactive); in [15], 5.69 µM (inactive); in [16] it was 5.42 µM (inactive); in [17], 7.93 µM (inactive).

Turning to `O=C(O)C1CCCN1Cc1cc2ccccc2c2ccccc12` (stereo unspecified), the GI50 in test [18], in test [1], in test [2], in test [3], in test [4] and in [5] was > 100 µM (inactive) in each case. Further, the GI50 in [6] is > 100 µM (inactive); in test [7], > 100 µM (inactive); in test [8], > 100 µM (inactive); in test [9] it was above 100 µM; in test [10] it was > 100 µM (inactive); in [11], > 100 µM (inactive). Further, the GI50 in test [19], in test [12], in test [13], in test [14], in test [15] and in [16] was > 100 µM (inactive) in each case. Moreover, the GI50 in test [17] was > 100 µM (inactive).
